Columns and labels:
[1] = Selectivity index, ratio of LD50 for dog DH82 cells to IC50 for Leishmania infantum MHOM/BR/70/BH46 promastigotes infected in dog DH82 cells; type: toxicity, cell-based; settings: read-out: Ratio LD50/IC50
[2] = Cytotoxicity against human HepG2 cells assessed as decrease in cell viability after 48 hrs by MTT assay; type: toxicity, cell-based; settings: read-out: LD50
[3] = Selectivity index, ratio of LD50 for human HepG2 cells to IC50 for Leishmania infantum MHOM/BR/70/BH46 promastigotes infected in dog DH82 cells; type: toxicity, cell-based; settings: read-out: Ratio LD50/IC50
Leishmania infantum [4] = assay: Antiparasitic activity against Leishmania infantum MHOM/BR/70/BH46 promastigotes infected in dog DH82 cells after 48 hrs by ELISA method; type: functional, cell-based; settings: MHOM/BR/70/BH46, DH82, 48 h
[5] = Cytotoxicity against dog DH82 cells assessed as decrease in cell viability after 48 hrs by MTT assay; type: toxicity, cell-based, Canis lupus familiaris; settings: read-out: LD50
[6] = Selectivity index, ratio of LD50 for African green monkey BGM cells to IC50 for Leishmania infantum MHOM/BR/70/BH46 promastigotes infected in dog DH82 cells; type: toxicity, cell-based; settings: read-out: Ratio LD50/IC50
[7] = Cytotoxicity against African green monkey BGM cells assessed as decrease in cell viability after 48 hrs by MTT assay; type: toxicity, cell-based; settings: chlorocebus aethiops, read-out: LD50
Leishmania infantum [8] = assay: Antiparasitic activity against Leishmania infantum MHOM/BR/70/BH46 promastigotes infected in dog DH82 cells at 1000 uM after 48 hrs by ELISA method; type: functional; settings: MHOM/BR/70/BH46, DH82, 48 h

Q: Which selectivity ratio [1] does the source give for `CC1(C)CC[C@]2(C(=O)OCc3cccc([N+](=O)[O-])c3)CC[C@]3(C)C(=CC[C@@H]4[C@@]5(C)CC[C@H](O)[C@@](C)(CO)[C@@H]5CC[C@]43C)[C@@H]2C1` here?
A: 6.4

Q: And the CC50 at 48 h [2]?
A: 70 µM

Q: What about the selectivity ratio [3] of the same molecule?
A: 5.2

Q: And the IC50 (Leishmania infantum [4])?
A: 9.7 µM

Q: And the CC50 at 48 h [5]?
A: 63 µM

Q: What about the selectivity ratio [6] of the same molecule?
A: 32

Q: What about the CC50 at 48 h [7] of the same molecule?
A: 314 µM

Q: And the inhibition at 1000 µM (Leishmania infantum [8])?
A: 60.5%

Q: Which selectivity ratio [1] does the source give for `CC1(C)CC[C@]2(C(=O)OCc3cn(Cc4ccccc4[N+](=O)[O-])nn3)CC[C@]3(C)C(=CC[C@@H]4[C@@]5(C)CC[C@H](O)[C@@](C)(CO)[C@@H]5CC[C@]43C)[C@@H]2C1` here?
A: 6.6

Q: And the CC50 at 48 h [2]?
A: 57 µM

Q: What about the selectivity ratio [3] of the same molecule?
A: 5.1

Q: What about the IC50 (Leishmania infantum [4]) of the same molecule?
A: 32 µM

Q: What about the CC50 at 48 h [5] of the same molecule?
A: 212 µM

Q: And the selectivity ratio [6]?
A: 1.3

Q: What about the CC50 at 48 h [7] of the same molecule?
A: 15 µM

Q: And the inhibition at 1000 µM (Leishmania infantum [8])?
A: 51%

Q: With `CC1(C)CC[C@]2(C(=O)O)CC[C@]3(C)C(=CC[C@@H]4[C@@]5(C)CC[C@H](O)[C@@](C)(CO)[C@@H]5CC[C@]43C)[C@@H]2C1` [HEDERAGENIN] as the molecule, how does the selectivity ratio [1] read?
A: 10

Q: What about the CC50 at 48 h [2] of the same molecule?
A: < 1000 µM

Q: What about the selectivity ratio [3] of the same molecule?
A: 16.2

Q: What about the IC50 (Leishmania infantum [4]) of the same molecule?
A: 61.6 µM

Q: What about the CC50 at 48 h [5] of the same molecule?
A: < 1000 µM

Q: And the selectivity ratio [6]?
A: 0.9

Q: What about the CC50 at 48 h [7] of the same molecule?
A: 57 µM

Q: What about the inhibition at 1000 µM (Leishmania infantum [8]) of the same molecule?
A: 55.5%

— ChEMBL document CHEMBL3875145, “Highly potent anti-leishmanial derivatives of hederagenin, a triperpenoid from Sapindus saponaria L” (Eur J Med Chem, 2016)
